Experimental data taken from ChEMBL document CHEMBL4806958, “Anti-cancer/anti-fibrosis compounds” (2020).

Tests used:
[1] = molecular target: Casein kinase II subunit alpha (Homo sapiens, UniProt P68400); assay: Inhibition of CSNK2A1(unknown origin) using Ser/Thr 11 as substrate incubated for 60 mins in presence of ATP by Z'-LYTE assay
[2] = molecular target: Homeodomain-interacting protein kinase 2 (Homo sapiens, UniProt Q9H2X6); assay: Inhibition of HIPK2 (unknown origin) using Ser/Thr 09 as substrate incubated for 60 mins in presence of ATP by Z'-Lyte assay
Homeodomain-interacting protein kinase 2, sequence (Q9H2X6 whole entry): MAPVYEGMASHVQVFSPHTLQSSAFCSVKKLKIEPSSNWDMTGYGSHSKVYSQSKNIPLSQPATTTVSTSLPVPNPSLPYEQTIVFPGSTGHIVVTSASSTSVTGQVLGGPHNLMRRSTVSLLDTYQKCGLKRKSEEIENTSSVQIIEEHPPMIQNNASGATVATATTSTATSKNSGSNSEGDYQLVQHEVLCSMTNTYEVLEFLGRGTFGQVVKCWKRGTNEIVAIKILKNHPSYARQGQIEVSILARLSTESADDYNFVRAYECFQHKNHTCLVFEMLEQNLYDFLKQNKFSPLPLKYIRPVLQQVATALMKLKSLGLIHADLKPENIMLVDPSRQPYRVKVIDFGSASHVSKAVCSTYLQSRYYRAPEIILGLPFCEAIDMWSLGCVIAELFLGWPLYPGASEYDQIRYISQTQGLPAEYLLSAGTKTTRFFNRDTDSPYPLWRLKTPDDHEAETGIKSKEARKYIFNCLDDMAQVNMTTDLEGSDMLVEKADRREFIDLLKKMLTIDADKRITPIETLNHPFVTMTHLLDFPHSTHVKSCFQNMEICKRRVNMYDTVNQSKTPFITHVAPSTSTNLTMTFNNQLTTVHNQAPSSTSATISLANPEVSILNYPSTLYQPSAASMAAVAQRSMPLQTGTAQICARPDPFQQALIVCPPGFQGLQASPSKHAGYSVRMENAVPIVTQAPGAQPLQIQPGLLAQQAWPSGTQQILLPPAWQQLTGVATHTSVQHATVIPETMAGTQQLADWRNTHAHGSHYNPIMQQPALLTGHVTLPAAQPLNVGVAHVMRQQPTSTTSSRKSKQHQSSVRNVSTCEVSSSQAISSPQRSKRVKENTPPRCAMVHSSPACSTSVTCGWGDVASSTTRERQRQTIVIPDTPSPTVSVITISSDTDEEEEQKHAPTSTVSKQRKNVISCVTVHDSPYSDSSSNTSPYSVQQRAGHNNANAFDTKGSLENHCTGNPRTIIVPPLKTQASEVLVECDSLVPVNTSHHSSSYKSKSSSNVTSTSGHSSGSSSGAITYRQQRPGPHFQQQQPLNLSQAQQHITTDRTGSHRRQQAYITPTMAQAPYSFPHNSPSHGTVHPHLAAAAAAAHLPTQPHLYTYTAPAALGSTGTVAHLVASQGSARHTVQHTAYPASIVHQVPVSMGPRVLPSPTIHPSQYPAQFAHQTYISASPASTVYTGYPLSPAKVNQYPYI

Casein kinase II subunit alpha, sequence (P68400 whole entry): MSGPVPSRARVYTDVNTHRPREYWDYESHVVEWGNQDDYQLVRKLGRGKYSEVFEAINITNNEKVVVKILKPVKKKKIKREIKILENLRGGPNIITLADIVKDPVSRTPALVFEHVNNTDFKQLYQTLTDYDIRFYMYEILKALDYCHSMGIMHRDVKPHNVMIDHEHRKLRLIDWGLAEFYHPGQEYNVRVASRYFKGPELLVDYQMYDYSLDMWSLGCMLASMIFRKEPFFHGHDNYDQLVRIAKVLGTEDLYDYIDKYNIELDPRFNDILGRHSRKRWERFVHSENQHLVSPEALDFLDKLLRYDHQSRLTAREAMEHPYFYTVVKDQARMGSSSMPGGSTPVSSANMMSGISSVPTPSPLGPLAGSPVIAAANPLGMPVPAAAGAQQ

`O=C(O)c1ccc2c(c1)cc(Nc1cccc(Cl)c1)c1ccncc12` was tested, and the IC50 [1] was < 300 nM.

For `O=C(O)c1ccc2c(c1)cc(Br)c1cc(Cl)ncc12`, the IC50 [2] was > 5000 nM.

For `CCC(C)Nc1cc2cc(C(=O)O)ccc2c2cnccc12` (stereo not drawn), the IC50 [1] was < 300 nM.

`O=C(O)c1ccc2c(c1)cc(NC1CC1)c1ccncc12` was tested, and the IC50 [2] was < 300 nM and the IC50 [1] was < 300 nM.

`O=C(O)c1ccc2c(c1)cc(Cl)c1ccncc12` was tested, and the IC50 [1] was < 300 nM.

For `Nc1nccc2cc(Br)c3cc(C(=O)O)ccc3c12`, the IC50 [2] was < 300 nM.

`N#Cc1cc2cc(C(=O)O)ccc2c2cnccc12` was tested, and the IC50 [1] was < 300 nM.
